Results on one compound are retold here after patent US11572590B2, “Methods for evaluating tumor cell spheroids using 3D microfluidic cell culture device” (Dana-Farber Cancer Institute, Inc., priority 2017, dated 2023).

Like-named read-outs stand apart in the source and are kept apart here.

What all share (experiment): SelectScreen Kinase Profiling, single point inhibition and IC50 for off-target kinases
What all share (format): biochemical

In test [1] the target is off-target kinases (Homo sapiens, UniProt Q8N5S9). Particulars: CAMKK1 (CAMKKA), LanthaScreen Binding. On the technique in general: In TR-FRET formats the signal depends on donor and acceptor labels being close together.
Test [2] deals with off-target kinases (Homo sapiens, UniProt P53667). Particulars: LIMK1, LanthaScreen Binding.
Test [3] has as its target off-target kinases (Homo sapiens, UniProt P49760). The conditions noted are these: CLK2, ZLYTE, ATP Km app.
For test [4], the target named is off-target kinases (Homo sapiens, UniProt P07333). Particulars: CSF1R (FMS), ATP Km app, ZLYTE.
For test [5], the target named is T1, off-target kinases (Homo sapiens, UniProt Q96BR1).
T1 sequence (Q96BR1 1-496): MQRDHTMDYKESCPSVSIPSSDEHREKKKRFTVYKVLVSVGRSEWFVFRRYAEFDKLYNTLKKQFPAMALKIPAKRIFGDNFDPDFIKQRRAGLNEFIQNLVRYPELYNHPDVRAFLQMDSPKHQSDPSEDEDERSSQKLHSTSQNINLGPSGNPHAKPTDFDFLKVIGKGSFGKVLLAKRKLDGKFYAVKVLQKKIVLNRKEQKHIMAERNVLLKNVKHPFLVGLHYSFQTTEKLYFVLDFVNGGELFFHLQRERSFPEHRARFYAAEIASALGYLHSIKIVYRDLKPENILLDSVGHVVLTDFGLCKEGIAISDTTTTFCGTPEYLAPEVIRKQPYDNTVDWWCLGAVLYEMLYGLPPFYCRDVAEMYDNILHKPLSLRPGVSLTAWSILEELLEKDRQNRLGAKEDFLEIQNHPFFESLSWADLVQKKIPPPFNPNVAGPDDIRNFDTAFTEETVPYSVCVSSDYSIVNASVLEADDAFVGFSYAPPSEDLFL
The conditions noted are these: SGKL (SGK3), ZLYTE, ATP Km app.

The target of test [6] is off-target kinases (Homo sapiens, UniProt P57059). Particulars: SIK1, LanthaScreen Binding.
Test [7] has as its target off-target kinases (Homo sapiens, UniProt Q13153). The conditions noted are these: PAK1, ZLYTE, ATP Km app.
Test [8] has as its target off-target kinases (Homo sapiens, UniProt Q9NQU5). Particulars: PAK6, ZLYTE, ATP Km app.

Chain of off-target kinases (Homo sapiens, UniProt Q13153) (Q13153 whole entry): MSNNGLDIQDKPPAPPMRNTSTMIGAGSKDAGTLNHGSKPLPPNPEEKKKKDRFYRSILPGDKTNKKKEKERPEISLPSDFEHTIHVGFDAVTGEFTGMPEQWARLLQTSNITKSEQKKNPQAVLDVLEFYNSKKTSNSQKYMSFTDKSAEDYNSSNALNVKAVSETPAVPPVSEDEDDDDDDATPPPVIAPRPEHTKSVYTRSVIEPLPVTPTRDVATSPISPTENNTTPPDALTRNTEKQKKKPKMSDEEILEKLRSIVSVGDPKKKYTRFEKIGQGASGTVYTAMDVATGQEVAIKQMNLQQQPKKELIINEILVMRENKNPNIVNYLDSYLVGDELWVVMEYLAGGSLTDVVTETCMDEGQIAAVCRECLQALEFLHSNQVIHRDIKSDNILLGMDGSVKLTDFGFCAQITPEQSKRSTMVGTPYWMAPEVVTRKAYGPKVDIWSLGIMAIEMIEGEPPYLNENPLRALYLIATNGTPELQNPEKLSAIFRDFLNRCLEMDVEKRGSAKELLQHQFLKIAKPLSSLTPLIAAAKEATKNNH
Chain of off-target kinases (Homo sapiens, UniProt Q9NQU5) (Q9NQU5 whole entry): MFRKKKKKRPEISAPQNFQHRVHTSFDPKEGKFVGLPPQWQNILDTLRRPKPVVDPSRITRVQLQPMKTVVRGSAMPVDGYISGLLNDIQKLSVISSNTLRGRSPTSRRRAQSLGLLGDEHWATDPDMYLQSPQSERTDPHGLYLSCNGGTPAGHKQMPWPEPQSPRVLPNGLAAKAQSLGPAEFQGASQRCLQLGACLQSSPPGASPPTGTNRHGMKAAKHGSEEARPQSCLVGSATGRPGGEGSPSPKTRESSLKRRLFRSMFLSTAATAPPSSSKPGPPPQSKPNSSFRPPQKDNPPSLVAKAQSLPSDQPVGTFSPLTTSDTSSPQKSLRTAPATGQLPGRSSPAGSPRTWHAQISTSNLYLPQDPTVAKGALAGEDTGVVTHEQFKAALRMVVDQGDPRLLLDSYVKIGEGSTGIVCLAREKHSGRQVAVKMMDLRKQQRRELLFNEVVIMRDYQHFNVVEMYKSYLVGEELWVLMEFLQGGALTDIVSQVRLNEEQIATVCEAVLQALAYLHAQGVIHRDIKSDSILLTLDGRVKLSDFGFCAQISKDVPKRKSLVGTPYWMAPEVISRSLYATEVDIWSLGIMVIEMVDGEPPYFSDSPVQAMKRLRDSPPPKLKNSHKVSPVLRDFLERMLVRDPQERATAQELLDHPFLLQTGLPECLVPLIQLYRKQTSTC
Chain of off-target kinases (Homo sapiens, UniProt P53667) (P53667 whole entry): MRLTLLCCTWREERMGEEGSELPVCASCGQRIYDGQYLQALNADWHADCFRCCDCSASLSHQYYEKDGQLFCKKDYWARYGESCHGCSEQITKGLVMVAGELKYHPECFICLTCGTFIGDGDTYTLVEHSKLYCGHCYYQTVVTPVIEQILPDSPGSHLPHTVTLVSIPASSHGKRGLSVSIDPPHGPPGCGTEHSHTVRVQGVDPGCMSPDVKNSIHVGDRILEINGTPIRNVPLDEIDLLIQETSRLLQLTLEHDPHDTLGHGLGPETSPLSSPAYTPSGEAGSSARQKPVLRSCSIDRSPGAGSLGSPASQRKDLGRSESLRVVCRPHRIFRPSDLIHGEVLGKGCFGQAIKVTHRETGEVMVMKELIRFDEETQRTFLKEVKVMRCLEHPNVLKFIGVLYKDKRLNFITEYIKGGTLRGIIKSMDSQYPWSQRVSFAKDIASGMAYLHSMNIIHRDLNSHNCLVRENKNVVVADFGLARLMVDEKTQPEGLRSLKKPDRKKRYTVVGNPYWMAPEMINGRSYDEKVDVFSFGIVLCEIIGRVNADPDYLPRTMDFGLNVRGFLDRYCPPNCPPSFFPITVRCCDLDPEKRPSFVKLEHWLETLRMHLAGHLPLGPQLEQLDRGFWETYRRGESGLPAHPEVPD
Chain of off-target kinases (Homo sapiens, UniProt Q8N5S9) (Q8N5S9 whole entry): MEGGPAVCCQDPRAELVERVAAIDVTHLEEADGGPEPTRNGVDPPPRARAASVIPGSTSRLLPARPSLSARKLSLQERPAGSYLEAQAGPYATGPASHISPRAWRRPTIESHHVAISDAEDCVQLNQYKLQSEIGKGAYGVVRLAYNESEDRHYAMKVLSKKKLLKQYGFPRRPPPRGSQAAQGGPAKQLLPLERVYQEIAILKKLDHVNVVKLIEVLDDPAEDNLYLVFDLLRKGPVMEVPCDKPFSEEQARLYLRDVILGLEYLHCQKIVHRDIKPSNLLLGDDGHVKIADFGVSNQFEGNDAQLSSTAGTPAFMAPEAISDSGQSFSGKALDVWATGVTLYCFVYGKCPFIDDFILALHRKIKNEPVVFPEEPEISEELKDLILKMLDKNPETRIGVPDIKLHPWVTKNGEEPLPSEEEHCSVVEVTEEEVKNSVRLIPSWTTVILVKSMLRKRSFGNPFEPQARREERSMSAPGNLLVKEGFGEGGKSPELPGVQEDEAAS
Chain of off-target kinases (Homo sapiens, UniProt P07333) (P07333 20-972): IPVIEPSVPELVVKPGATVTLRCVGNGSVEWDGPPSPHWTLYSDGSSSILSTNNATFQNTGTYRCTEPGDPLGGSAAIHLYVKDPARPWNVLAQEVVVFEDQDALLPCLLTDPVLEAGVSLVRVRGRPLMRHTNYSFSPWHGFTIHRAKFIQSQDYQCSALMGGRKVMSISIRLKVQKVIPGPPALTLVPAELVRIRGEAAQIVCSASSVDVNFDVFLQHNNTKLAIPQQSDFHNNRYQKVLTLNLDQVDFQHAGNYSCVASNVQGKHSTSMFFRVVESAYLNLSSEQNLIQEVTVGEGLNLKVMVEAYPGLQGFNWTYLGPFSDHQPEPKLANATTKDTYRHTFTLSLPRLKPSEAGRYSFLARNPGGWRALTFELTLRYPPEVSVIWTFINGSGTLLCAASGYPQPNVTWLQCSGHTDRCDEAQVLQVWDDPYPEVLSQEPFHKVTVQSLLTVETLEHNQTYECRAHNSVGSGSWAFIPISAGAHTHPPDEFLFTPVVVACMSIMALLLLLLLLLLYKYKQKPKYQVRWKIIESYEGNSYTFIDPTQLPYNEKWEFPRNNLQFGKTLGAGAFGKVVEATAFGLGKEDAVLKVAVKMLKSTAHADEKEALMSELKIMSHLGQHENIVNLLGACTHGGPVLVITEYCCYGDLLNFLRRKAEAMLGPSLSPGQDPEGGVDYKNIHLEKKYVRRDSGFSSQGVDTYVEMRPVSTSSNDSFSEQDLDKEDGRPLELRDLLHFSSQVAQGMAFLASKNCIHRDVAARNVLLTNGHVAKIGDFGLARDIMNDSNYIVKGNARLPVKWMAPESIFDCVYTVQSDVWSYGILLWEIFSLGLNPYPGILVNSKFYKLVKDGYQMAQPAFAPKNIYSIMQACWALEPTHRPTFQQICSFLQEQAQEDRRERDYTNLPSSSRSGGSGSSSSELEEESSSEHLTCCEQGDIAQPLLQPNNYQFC
Chain of off-target kinases (Homo sapiens, UniProt P49760) (P49760 whole entry): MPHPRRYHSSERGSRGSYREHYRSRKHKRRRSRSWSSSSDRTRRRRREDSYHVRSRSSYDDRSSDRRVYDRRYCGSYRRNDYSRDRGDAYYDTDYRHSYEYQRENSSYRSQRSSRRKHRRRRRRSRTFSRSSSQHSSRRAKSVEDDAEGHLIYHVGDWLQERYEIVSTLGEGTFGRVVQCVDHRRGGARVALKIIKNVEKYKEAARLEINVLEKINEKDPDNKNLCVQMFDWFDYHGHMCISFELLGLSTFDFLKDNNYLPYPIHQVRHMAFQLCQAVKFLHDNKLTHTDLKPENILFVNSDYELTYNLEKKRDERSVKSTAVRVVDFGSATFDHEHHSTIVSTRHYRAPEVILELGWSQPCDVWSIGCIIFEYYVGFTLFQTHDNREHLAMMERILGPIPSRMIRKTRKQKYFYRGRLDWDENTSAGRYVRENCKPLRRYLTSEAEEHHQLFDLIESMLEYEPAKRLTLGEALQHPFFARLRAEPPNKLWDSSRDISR
Chain of off-target kinases (Homo sapiens, UniProt P57059) (P57059 whole entry): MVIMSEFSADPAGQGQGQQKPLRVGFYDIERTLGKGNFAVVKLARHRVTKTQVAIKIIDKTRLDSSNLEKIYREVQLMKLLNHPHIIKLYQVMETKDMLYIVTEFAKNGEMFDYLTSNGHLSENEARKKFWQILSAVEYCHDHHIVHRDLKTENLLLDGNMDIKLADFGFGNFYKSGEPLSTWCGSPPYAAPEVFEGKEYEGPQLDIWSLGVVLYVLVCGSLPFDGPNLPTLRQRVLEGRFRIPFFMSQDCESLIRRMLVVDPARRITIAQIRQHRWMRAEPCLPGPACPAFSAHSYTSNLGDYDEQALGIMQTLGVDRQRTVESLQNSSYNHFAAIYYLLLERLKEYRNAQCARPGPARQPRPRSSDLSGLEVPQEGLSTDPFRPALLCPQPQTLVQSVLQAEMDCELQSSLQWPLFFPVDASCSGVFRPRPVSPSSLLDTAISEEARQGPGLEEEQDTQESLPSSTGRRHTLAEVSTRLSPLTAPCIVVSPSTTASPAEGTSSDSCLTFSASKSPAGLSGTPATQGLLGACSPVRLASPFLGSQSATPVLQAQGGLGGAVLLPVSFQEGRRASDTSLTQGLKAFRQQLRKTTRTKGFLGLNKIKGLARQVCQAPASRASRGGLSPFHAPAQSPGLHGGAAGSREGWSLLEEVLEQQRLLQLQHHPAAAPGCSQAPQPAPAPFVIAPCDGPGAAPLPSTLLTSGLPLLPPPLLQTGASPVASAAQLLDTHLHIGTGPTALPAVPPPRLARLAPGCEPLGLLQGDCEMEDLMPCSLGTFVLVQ

`N#Cc1cc(-c2ncnc(Nc3ccc(N4CCN(C5COC5)CC4)cc3)n2)ccc1OC1CCOCC1` [Compound 1, 5-(4-((4-(4-(oxetan-3-yl)piperazin-1-yl)phenyl)amino)-1,3,5-triazin-2-yl)-2-((tetrahydro-2H-pyran-4-yl)oxy)benzonitrile]: the inhibition (in general, the change of the read-out against control, counted positive when it falls) on off-target kinases [1] (read-out: % Inhibition 1) was 2%; at off-target kinases [1] (read-out: % Inhibition 2) it was -1%; on off-target kinases [1] (read-out: % Inhibition Avg) it was 0%; on off-target kinases [2] (read-out: % Inhibition 1), 40%; at off-target kinases [2] (read-out: % Inhibition 2), 39%; at off-target kinases [2] (read-out: % Inhibition Avg), 40%. Further, the inhibition on off-target kinases [3] (read-out: % Inhibition 1) is 5%; at off-target kinases [3] (read-out: % Inhibition 2) it was 9%; at off-target kinases [3] (read-out: % Inhibition Avg), 7%; at off-target kinases [4] (read-out: % Inhibition 1), 91%; at off-target kinases [4] (read-out: % Inhibition 2) it was 96%; on off-target kinases [4] (read-out: % Inhibition Avg), 93%. Moreover, the inhibition on off-target kinases [5] (read-out: % Inhibition 1) came out at 3%; on off-target kinases [5] (read-out: % Inhibition 2) it was 4%; on off-target kinases [5] (read-out: % Inhibition Avg) it was 3%; at off-target kinases [6] (read-out: % Inhibition 1) it was 57%; on off-target kinases [6] (read-out: % Inhibition 2), 54%; at off-target kinases [6] (read-out: % Inhibition Avg), 56%. For the same compound, the inhibition on off-target kinases [7] (read-out: % Inhibition 1) is 8%; at off-target kinases [7] (read-out: % Inhibition 2) it was 8%; at off-target kinases [7] (read-out: % Inhibition Avg) it was 8%; at off-target kinases [8] (read-out: % Inhibition 1), 9%; on off-target kinases [8] (read-out: % Inhibition 2), 4%; at off-target kinases [8] (read-out: % Inhibition Avg), 6%.
